Molecular target: T1, CaV3.2 (Homo sapiens, UniProt O95180)
T1 construct: expressed in transfected cells; host or cells: HEK293
Assay: Tl+-flux assay in HEK-293 cells, CaV3.2
Type: cell-based
Conditions: HEK293; 10 µM test compound; relative to control bepridil; read-out: Percent Inhibition ± SEM, CaV3.2
From the text: Having executed our plan to prepare analogs across the identified regions of the chemotype (Figure 2), we identified two analogs for further profiling and evaluation. […] Desiring to add a second compound with some measure of structural differences, we also chose another submicromolar SLACK inhibitor 66 (VU0936154). Whereas 40 contains an ether linker and a halogenated phenyl group in the eastern region, […] contains an N-methyl linker and a phenyl group with a more polar cyano substituent. We first screened these analogs at 10 µM versus our in-house panel of ion channel targets using Tl^+-flux assays in HEK-293 cells expressing the human target of interest. […] Included in this set are Slo family members SLICK and two isoforms of Maxi-K, as well as several different K^+, Na^+, and Ca^2+ channels (Table 6). […] Of note was the excellent selectivity versus the broader panel of targets for both compounds, including versus the hERG channel.
Stably transfected monoclonal HEK293 cell lines expressing SLICK, Maxi-K α1/β3, Maxi-K α1/β4, CaV3.2, GIRK 1/2, KV2.1, KV7.2, NaV1.7, and TASK-1 were generated as previously described. […]
The Tl^+ flux assays were conducted as previously described, with modifications optimized for individual cell lines as described below. […] Cell plates were then loaded onto a Panoptic kinetic imaging plate reader (WaveFront Biosciences, Franklin, TN, USA). […]

T1 sequence (O95180 whole entry): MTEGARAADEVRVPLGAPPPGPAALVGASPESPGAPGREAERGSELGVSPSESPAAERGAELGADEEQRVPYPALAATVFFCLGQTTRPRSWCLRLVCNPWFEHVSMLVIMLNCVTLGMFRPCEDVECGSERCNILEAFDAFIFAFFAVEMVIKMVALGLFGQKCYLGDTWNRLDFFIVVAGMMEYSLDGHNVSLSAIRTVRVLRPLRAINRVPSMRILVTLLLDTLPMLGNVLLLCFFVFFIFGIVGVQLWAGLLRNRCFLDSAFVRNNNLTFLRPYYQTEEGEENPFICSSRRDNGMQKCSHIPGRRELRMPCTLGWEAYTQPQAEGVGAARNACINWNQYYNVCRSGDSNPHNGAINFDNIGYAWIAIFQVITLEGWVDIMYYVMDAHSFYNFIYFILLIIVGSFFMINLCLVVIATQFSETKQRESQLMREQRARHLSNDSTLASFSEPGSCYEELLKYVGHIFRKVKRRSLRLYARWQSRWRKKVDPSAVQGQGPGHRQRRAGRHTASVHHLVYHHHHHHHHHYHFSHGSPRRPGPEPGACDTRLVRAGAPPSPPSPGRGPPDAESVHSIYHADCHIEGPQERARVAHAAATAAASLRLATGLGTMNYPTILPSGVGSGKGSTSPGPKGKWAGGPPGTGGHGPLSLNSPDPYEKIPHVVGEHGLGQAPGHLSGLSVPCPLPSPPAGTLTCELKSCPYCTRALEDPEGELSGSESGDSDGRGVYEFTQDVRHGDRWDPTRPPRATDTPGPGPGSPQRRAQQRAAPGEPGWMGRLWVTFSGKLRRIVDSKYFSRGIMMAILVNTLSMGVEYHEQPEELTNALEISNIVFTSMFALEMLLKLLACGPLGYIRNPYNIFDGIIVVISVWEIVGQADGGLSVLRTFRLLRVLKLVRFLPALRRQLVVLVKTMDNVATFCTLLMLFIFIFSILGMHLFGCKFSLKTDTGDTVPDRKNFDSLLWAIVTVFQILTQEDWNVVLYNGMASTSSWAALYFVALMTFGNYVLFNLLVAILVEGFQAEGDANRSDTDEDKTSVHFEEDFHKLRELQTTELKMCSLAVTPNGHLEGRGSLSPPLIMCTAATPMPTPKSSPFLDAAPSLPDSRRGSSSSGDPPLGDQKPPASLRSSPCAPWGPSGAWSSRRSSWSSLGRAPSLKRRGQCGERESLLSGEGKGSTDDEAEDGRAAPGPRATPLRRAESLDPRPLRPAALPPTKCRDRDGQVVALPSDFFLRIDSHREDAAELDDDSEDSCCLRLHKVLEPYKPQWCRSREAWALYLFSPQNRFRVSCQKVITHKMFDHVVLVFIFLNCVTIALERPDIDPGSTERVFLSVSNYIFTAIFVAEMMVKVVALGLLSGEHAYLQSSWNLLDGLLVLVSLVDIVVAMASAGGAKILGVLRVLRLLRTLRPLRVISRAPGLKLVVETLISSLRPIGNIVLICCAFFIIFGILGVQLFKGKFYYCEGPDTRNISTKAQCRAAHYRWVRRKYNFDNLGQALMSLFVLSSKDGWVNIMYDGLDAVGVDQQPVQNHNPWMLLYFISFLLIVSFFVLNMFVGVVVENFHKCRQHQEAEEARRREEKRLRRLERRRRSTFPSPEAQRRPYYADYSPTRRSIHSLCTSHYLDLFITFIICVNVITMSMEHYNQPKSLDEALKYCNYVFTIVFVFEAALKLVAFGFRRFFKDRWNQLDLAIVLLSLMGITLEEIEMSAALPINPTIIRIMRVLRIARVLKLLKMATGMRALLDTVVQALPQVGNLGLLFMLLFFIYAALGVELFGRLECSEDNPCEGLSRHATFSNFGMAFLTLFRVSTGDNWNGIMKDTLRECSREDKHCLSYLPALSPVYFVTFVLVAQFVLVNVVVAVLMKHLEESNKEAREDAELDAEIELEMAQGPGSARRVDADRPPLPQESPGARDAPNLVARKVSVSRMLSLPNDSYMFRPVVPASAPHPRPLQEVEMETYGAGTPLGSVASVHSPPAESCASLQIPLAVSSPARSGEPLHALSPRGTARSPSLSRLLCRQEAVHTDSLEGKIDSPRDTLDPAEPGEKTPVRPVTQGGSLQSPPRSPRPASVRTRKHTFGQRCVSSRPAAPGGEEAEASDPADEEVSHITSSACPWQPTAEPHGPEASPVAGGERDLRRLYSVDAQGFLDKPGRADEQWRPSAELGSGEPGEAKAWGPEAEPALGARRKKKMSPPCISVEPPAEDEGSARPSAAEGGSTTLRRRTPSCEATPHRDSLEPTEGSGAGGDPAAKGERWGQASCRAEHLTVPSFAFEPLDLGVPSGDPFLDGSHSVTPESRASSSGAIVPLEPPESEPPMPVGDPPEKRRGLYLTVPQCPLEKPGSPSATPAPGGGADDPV

CC(C)(Oc1ccc(Cl)cc1)C(=O)Nc1cnc(Oc2c(F)cccc2F)nc1 [Analog 40]
inhibition at 10 µM: 10 ± 0.82%

CN(c1ccc(C#N)cc1)c1ncc(NC(=O)C(C)(C)Oc2ccc(Cl)cc2)cn1 [Analog 66]
inhibition at 10 µM: 32 ± 2.4%

Reference: PMC11643494, “Structure–Activity Relationship Studies in a Series of 2-Aryloxy-N-(pyrimidin-5-yl)acetamide Inhibitors of SLACK Potassium Channels” (Molecules, 2024)
